Among the data in US5019647A, “Gastrin releasing peptide antagonist” (Merck & Co., Inc., priority 1988, dated 1991) are IC50 values, retold here.

Residues, ends and D or L forms follow the SMILES beside them. *: point of attachment. X1 = CCOC[C@H](CC(C)C)N*

One may read the IC50 as the midpoint of a concentration-inhibition curve.

The target in one test is T1, GRP receptor on SCLC (Homo sapiens, UniProt P30550).
T1 construct: approximately 1×10^8 H345 SCLC cells; endogenous in cells; host or cells: H345 SCLC cells
Put plainly: Procedure D: Stimulation of Ca2+ Release in SCLC (Fura-2 fluorescence, GRP 14-27 challenge). Format: cell-based. To be noted: H345 SCLC cells; 100 nM GRP14-27; read-out: blocks the Ca2+ response elicited by GRP14-27, IC50.

Another test has as its system Swiss 3T3 cells. Put plainly: Procedure C: Mitogenesis Inhibition (GRP-stimulated 3H-thymidine incorporation). Format: cell-based. The note with it: 3 nM human GRP, read-out: blocks mitogenic stimulation of human GRP, IC50. The procedure: (§1) The activity of the peptide derivatives of the present invention as GRP antagonists was determined in competitive binding assays with a radio-active GRP derivative. Swiss 3T3 fibroblasts were used in these tests as the source of GRP receptor. Because these cells respond to GRP binding with a rapid increase in DNA synthesis, compounds that bind to the GRP receptor can also be tested for their ability to stimulate DNA synthesis. New DNA synthesis is one of the early steps in cell division and is widely accepted as a measure of mitogenicity or cell growth. […] Compounds which block DNA synthesis are mitogenic antagonists.
Swiss 3T3 cells were grown in monolayer culture in 24 -well plates (Costar) in serum-free DMEM for 48 hours, at which time the GRP or a GRP homologue, the antagonist and 23 nM ^3 H-thymidine were added. After an additional 48 hours, the cell monolayer was washed twice with PBS, and the cells were then removed with 1 ml 10×trypsin containing 5 mM EDTA. The cells were harvested with a Skatron filter apparatus, and the filters counted in a scintillation counter.
(Incorporation of labelled thymidine or its analogues reports DNA synthesis.)

For the next test, the target named is T2, GRP receptor (Mus musculus, UniProt P21729).
T2 construct: Swiss 3T3 fibroblasts were used in these tests as the source of GRP receptor; endogenous in cells; host or cells: Swiss 3T3 cells (intact confluent monolayers), obtained from Dr. K. Brown
As to the kind of experiment: Procedure A: Binding Inhibition Studies (competitive binding with [3H-Phe15] GRP15-27). The note with it: Swiss 3T3 cells; [3H-Phe15] GRP15-27 at 3 nM; 60 minutes at 15° C.; read-out: blocks binding of the radioligand, IC50. As for the experimental part:
as §1
Swiss 3T3 cells, obtained from Dr. K. Brown (Institute of Animal Physiology, Cambridge, U.K.), were grown to confluency in Costar 12 well plates containing DMEM (Gibco) supplemented with 10% fetal bovine serum, 2 mM glutamine and 1% penicillin-streptomycin. The cells were washed twice with binding buffer [1:1 DMEM: Waymouths MB752/1 medium, plus 1 mg/ml BSA (Fraction V, Calbiochem)]. The antagonist was dissolved in 10 mM HCl, and diluted to the appropriate concentration in binding buffer. The antagonist was then added to the cells, followed by [3H-Phe^15 ] GRP15-27 at a final concentration of 3 nM. […]

T1 sequence (P30550 whole entry): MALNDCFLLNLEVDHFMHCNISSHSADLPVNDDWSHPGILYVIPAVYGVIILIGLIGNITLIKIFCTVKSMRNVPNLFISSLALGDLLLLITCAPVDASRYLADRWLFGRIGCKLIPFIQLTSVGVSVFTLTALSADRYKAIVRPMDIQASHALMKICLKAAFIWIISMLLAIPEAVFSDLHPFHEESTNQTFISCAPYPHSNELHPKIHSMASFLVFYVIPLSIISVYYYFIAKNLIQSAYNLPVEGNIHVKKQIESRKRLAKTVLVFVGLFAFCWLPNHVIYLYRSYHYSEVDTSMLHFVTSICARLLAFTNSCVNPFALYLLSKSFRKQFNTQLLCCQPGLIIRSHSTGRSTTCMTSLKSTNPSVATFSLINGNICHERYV
T2 sequence (P21729 whole entry): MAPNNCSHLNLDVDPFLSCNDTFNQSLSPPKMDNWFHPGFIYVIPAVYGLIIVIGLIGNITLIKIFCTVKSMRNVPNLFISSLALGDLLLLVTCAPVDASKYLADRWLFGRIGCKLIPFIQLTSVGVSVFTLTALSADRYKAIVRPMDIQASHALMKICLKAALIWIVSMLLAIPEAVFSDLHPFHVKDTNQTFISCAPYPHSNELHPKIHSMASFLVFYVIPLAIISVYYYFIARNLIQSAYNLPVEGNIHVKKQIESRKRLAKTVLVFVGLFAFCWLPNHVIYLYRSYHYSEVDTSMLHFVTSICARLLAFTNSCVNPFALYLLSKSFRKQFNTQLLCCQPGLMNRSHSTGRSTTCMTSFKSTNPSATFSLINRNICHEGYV
Experimental for GRP receptor on SCLC: Following the procedure of Heikkila et al., J Biol. Chem. 262 16456 (1987), approximately 1×10^8 H345 SCLC cells, maintained in RPMI-1640 (Ro) medium supplemented with selenium, insulin, and transferrin, were harvested by settling and washed with Ro. They were then resuspended in 2 ml Ro, to which 1.2 nmol Fura-2/AM per 10^6 cells was added. After a 15 minute incubation at 37° C., the cells were diluted to 10 ml with Ro and incubated for 1 hour at 37° C., the cells were then centrifuged and resuspended in HEPES-saline (140 mM NaCl, 5mM KCl, 5mM glucose, 1 mM CaCl2, 1 mM MgCl2, 20 mM HEPES, pH 7.4) at a density of 2.5-5×10^6 cells/ml. The cells were kept on ice for up to 2 hours before being used. Ca^2+ measurements were performed at 37° C. in an Aminco SPF-500 fluorimeter. The excitation wavelength was 340 nm, the emission wavelength 510 nm. Two ml of cell suspension was periodically resuspended in a 3 ml plastic cuvette. They were equilibrated at 37° for at least 5 minutes data was collected. After a stable baseline was established, the compound of interest was added, and data was collected for approximately 5 minutes. […] The cells were then lysed with 4 μl 10% Triton X-100 to measure peak fluorescence. Baseline fluorescence was measured after the subsequent addition of 40 μl 2M tris (pH 9.5) and 64 μl 0.2M EGTA.

Consider `CCOC[C@H](CC(C)C)NC(=O)[C@H](Cc1c[nH]cn1)NC(=O)CNC(=O)[C@@H](NC(=O)[C@H](C)NC(=O)[C@H](Cc1c[nH]c2ccccc12)NC(=O)[C@H](Cc1c[nH]cn1)NC(C)=O)C(C)C` [Example 1, Ac-His-Trp-Ala-Val-Gly-His-NHCHCH2 OCH5] (Ac-HWAVGH-X1), for which the IC50 was approximately 300 nM at GRP receptor on SCLC, approximately 20 nM in the test on Swiss 3T3 cells and approximately 5 nM on GRP receptor.
